Read-outs that look alike come from different tables or passages of the source.
Tests used:
juvenile female rabbits = experiment: Endometrial transformation in rabbit (Clauberg test); assay type: in vivo; conditions: for McPhail Index: scores 1 to 4; for minimal effective dose: Oryctolagus cuniculus, read-out: Threshold Value
[1] = Glucocorticoid / anti-glucocorticoid activity in vivo (changes in thymus weight); conditions: concluded from changes in thymus weight
androgen receptor (AR) = target: T1, androgen receptor (AR) (Homo sapiens, UniProt P10275); experiment: Androgen receptor binding
T1 sequence (P10275 1-920): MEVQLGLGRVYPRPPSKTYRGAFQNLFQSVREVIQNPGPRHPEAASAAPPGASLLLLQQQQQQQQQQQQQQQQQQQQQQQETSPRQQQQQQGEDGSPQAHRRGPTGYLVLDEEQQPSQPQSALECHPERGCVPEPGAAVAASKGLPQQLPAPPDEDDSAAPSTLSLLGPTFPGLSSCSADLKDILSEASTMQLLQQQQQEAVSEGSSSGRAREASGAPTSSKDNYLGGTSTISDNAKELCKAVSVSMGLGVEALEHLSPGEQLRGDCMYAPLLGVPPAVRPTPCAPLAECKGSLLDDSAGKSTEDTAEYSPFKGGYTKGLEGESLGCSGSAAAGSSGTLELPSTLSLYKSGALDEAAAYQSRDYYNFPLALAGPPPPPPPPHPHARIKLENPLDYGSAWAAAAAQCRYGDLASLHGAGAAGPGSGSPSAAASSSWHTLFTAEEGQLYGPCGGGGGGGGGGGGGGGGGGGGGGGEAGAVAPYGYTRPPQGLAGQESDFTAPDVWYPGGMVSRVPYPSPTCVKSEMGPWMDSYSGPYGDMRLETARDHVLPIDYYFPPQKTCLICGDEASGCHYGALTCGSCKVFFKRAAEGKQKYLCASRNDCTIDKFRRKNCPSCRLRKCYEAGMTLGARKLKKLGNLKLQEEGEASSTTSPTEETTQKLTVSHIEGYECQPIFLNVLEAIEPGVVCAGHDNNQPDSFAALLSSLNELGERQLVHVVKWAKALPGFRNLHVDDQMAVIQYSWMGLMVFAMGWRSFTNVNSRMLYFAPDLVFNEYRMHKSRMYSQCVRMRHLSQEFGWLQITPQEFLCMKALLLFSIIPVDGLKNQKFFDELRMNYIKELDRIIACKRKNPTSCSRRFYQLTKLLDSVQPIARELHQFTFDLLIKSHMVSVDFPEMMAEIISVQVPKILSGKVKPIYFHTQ

female rats = experiment: Ovulation inhibition test in rat; assay type: in vivo
Protocol: Before the treatment is started, two […] cycles of female rats (weight: 190 to 210 g) were monitored. Only animals having a regular 4 day-cycle are used for the subsequent test. Starting in the metoestrus, the test compound is administered for 4 days (day 1 to 4) and the cycle is controlled thereafter.
For subcutaneous application, the test compounds are dissolved in benzyl benzoate/castor oil (1+9 v/v) and the daily dose is administered in a volume of 1 ml/kg body weight.
For peroral application, the test compounds are suspended in a carrier liquid (85 mg Myrj^R in 100 ml 0.9 % w/v NaCl solution) and the daily dose is administered in a volume of 2 ml/kg body weight.
On day 4, after the application of the test compound, those animals having estrus or metoestrus are ovariectomized under ether anesthesia on one side. Preparations of the tubes are prepared and they are investigated for ova by means of microscope. On day 5 all animals (intact and partly ovariectomized) are killed with carbon dioxide, the tubes are preserved and analyzed in the same way. It is then determined, as a percentage, in how many animals ovulation was inhibited.

hPR-B = experiment: PR-B transcription assay (MTV-LUC reporter, SK-N-MC cells); assay type: cell-based, human; conditions: 10^-7 mol/l test compound relative to R5020 10^-7 mol/l, 24 hours, 0.1 µM
Protocol: The method for screening for PR isoform-specific progestins according to the present invention is carried out with first and second SK-N-MC cells stably transfected with a plasmid expressing the hPR-A (first cells) or the hPR-B (second cells) and the LUC reporter gene linked to the hormonally responsive MTV promoter.
The cells are cultured in Minimum Essential Medium with Earl's Salts (S-MEM, without L-glutamine; Gibco BRL, no. 21090-022), supplemented with 10 % fetal calf serum (FCS), penicillin 100U/streptomycin 100 µg/ml (Biochrom, no. A2213), L-glutamine 4 mmol/l (Gibco BRL, no. 25030-024), sodium pyruvate 1 mmol/l (Biochrom, no. L0473) and 1x non-essential amino acids (Biochrom, no. K0293) at a temperature of 37 °C and in an atmosphere of 5 % carbon dioxide.
For the transcription assay, the cells are seeded onto 96-well dishes (2x 10^4 cells/dish) and cultured in a medium as described above, with the exception that the FCS is replaced by a 3 % charcoal stripped FCS. 48 hours later, cells are contacted with prediluted test compounds. For determination of agonistic activity, cells are cultured in the presence of increasing concentrations (10^-6 to 10^-11 mol/l) of test progestins. As a positive control for reporter gene induction cells are treated with 10^-6 to 10^-11 mol/l R5020 (promegestone). As a negative control for reporter gene induction, cells are cultured in 1 % ethanol.
After incubation with test progestins for 24 hours, the medium is removed and cells are lysed with 20 µl of lysis buffer (Luciferase Assay System E 153A; Promega) and under agitation of the plate for 10 min. After addition of 30 µl of luciferase reagent (Luciferase Assay System E 151A + 152A; Promega) within 30 seconds per plate, the activity of the luciferase reporter gene product is determined in the cell lysates by means of a Microlite ML 3000 microtiter plate luminometer (Dynatech) in cycle mode.
Evaluation of the response gives the efficacy [%], and evaluation of the EC50 values gives the potency [nM]. Calculation of the agonistic activity is conducted as follows:
The LUC activity [%] for the measured data points is calculated as follows: relative LUC activity [%] = 100 x((response 10)^-6 (to 10)^-11 mol/l test compound - CO)/(CI - CO) [formula] wherein CI = 100 % stimulation (R5020, 10^-7 mol/l) and CO = 0 % stimulation (ethanol, 1 %).
Thus, the efficacy [%] is calculated according to: efficacy [%] = 100 x((response 10)^-7 mol/l test compound - CO)/(CI - CO) [formula]
The potency [nM], i.e. the EC50, is determined graphically.

binding affinity for the androgen receptor (AR) (androgen receptor (AR)): moderate
SMILES: O=C1OCc2cc(NC(=O)C(O)(CC3(c4cc(C(F)(F)F)ccc4F)CC3)C(F)(F)F)ccc21 (single isomer, unassigned; (+)) [((+)-1), (+)-5-{2-hydroxy-3-[1-(2-fluoro-5-trifluoromethylphenyl)-cyclopropyl]-2-trifluoromethyl-propionylamino}-phthalide]
McPhail Index (juvenile female rabbits; Oral (p.o.), 0.001 mg/kg): 1.2
McPhail Index (juvenile female rabbits; Oral (p.o.), 0.01 mg/kg): 2.5
McPhail Index (juvenile female rabbits; Oral (p.o.), 0.1 mg/kg): 3.0
minimal effective dose (juvenile female rabbits; sc, Subcutaneous (s.c.)): 0.001 to 0.01 mg/kg
minimal effective dose (juvenile female rabbits; Oral (p.o.)): 0.001 to 0.01 mg/kg
McPhail Index (juvenile female rabbits; Subcutaneous (s.c.), 0.001 mg/kg): 1.0
McPhail Index (juvenile female rabbits; Subcutaneous (s.c.), 0.01 mg/kg): 2.7
McPhail Index (juvenile female rabbits; Subcutaneous (s.c.), 0.1 mg/kg): 3.8
glucocorticoid or anti-glucocorticoid activity in vivo [1]: does not seem to exhibit any glucocorticoid or any anti-glucocorticoid activity
ED50 (female rats; Rattus norvegicus, ovulation inhibition, adult female rats (Table 1-a), read-out: ED50): 0.045 mg/kg
% Inhibition (female rats; ovulation inhibition, rat, dose 10 µg/kg, days 1 to 4): 0%
ED50 (female rats; rat (Table 1-b), read-out: Ovulation Inhibition (rat) [ED50]): 0.04 mg/kg
PR-B agonism efficacy (hPR-B): 25%
